Assay results from patent US20260078103A1, “ISOQUINOLONES AS PI3K INHIBITORS” (OnKure, Inc., priority 2022, published 2026).
Where two headings read alike, the source gives them in different places.

Assays:
Type in all cases: cell-based
[1] = system: phosphorylation of AKT (pAKT) in SKBR3 cells express WT PI3Ka; assay: In vitro cell pAKT (Ser473) HTRF, SKBR3 cells; conditions: cellular pAKT
Outline: (§1)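 pAKT (Ser473) was quantified by HTRF in lysates from cells exposed 6 h at 37 °C to 10-point compound series, with T47D in insulin-supplemented RPMI/10% FBS and SKBR3 in McCoy's 5a/10% FBS. Controls: 0.1% DMSO (high) and 10 uM alpelisib (low). IC50 from sigmoidal curve fitting.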

[2] = system: T47D cells expressing mutant PI3Ka (H1047R); assay: In vitro cell proliferation, T47D cells (CellTiter-Glo); conditions: inhibition of proliferation, read-out: Avg T-47D EC50
Outline: (§2)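 Proliferation was read by CellTiter-Glo luminescence after 72 h of exposure to 10-point compound dilutions at 37 °C and 5% CO2. T47D (RPMI, 10% FBS, insulin 0.2 units/mL) and SKBR3 (McCoys 5a, 10% FBS) cells were seeded at 1,500 cells/well. EC50 was fitted from inhibition relative to DMSO and 10 uM Alpelisib.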

[3] = system: SKBR3 cells express WT PI3Ka; assay: In vitro cell proliferation, SKBR3 cells (CellTiter-Glo); conditions: inhibition of proliferation
Outline: as §2

[4] = system: phosphorylation of AKT (pAKT) in T47D cells expressing mutant PI3Ka (H1047R); assay: In vitro cell pAKT (Ser473) HTRF, T47D cells; conditions: cellular pAKT, T47D cells, mutant PI3Ka (H1047R), 6 hours, read-out: Avg T-47D IC50
Outline: as §1

Row | SMILES | IC50 ([1]; Homo sapiens, SK-BR-3, 6 h) [nM] | EC50 ([2]; Homo sapiens, T47D, 72 h) [nM] | EC50 ([3]; Homo sapiens, SK-BR-3, 72 h) [nM] | IC50 ([4]; Homo sapiens, T47D, 6 h) [nM] | IC50 ([1]; 6 hours) [nM] | EC50 ([2]; 72 hours) [nM] | EC50 ([3]; 72 hours) [nM] | IC50 [4] [nM]
1 | Cc1cc(C(C)Nc2ccccc2C(=O)O)c2cc(N3Cc4cccc(C(F)(F)F)c4C3)n(C)c(=O)c2c1 (stereo not drawn) [Example 67] |  |  |  |  | > 15000 | 500 to 2000 | > 15000 | 1 to 500
2 | Cc1cc([C@@H](C)Nc2ccccc2C(=O)O)c2cc(-c3ccc(OCC(F)F)nc3)n(C)c(=O)c2c1 [Example 201] | > 15000 | 1 to 500 | > 15000 | 1 to 500 |  |  |  | 
3 | Cc1cc(C(C)Nc2ccccc2C(=O)O)c2cc(N3CC4C(C3)C4C(F)(F)F)n(C)c(=O)c2c1 (stereo not drawn) [Example 191] |  |  |  |  | > 15000 | 500 to 2000 | > 15000 | 1 to 500
4 | CC(=O)N1CCC2(CC1)CCN(c1cc3c(C(C)Nc4ccccc4C(=O)O)cc(C)cc3c(=O)n1C)CC2 (single isomer, unassigned) [Example 135] |  |  |  |  | > 15000 | 2000 to 15000 | > 15000 | > 15000
5 | CCOc1ccc(-c2cc3c(C(C)Nc4ccccc4C(=O)O)cc(C)cc3c(=O)n2C)cn1 (single isomer, unassigned) [Example 133] |  |  |  |  | > 15000 | 2000 to 15000 | > 15000 | > 15000
6 | Cc1cc(C(C)Nc2ccccc2C(=O)O)c2cc(N3Cc4cncnc4C3)n(C)c(=O)c2c1 (stereo not drawn) [Example 72] | > 15000 | 2000 to 15000 | > 15000 | 500 to 2000 |  |  |  | 
7 | Cc1cc(C(C)Nc2ccccc2C(=O)O)c2cc(N3C[C@@H]4[C@@H](C#N)[C@@H]4C3)n(C)c(=O)c2c1 (stereo partly drawn) [Example 70] | > 15000 | 500 to 2000 | > 15000 | 500 to 2000 |  |  |  | 
8 | CCOc1ccc(-c2cc3c(C(C)Nc4ccccc4C(=O)O)cc(C)cc3c(=O)n2C)cn1 (single isomer, unassigned) [Example 132] | > 15000 |  | > 15000 |  |  | 1 to 500 |  | 1 to 500
9 | Cc1cc(C(C)Nc2ccccc2C(=O)O)c2cc(N3CCN(C(=O)OC(C)C)CC3)n(C)c(=O)c2c1 (single isomer, unassigned) [Example 131] |  |  |  |  | > 15000 | 2000 to 15000 | > 15000 | > 15000
10 | Cc1cc(C(C)Nc2ccccc2C(=O)O)c2cc(N3C[C@H]4CCCC[C@@H]4C3)n(C)c(=O)c2c1 (single isomer, unassigned) [Example 101] | > 15000 | > 15000 | > 15000 | > 15000 |  |  |  | 
11 | Cc1cc(C(C)Nc2ccccc2C(=O)O)c2cc(-c3ccc(OC4CC(F)C4)nc3)n(C)c(=O)c2c1 (stereo not drawn) [Example 217] |  |  |  |  | > 15000 | 1 to 500 | 2000 to 15000 | 1 to 500
12 | Cc1cc(C(C)Nc2ccccc2C(=O)O)c2cc(N3CCC4(CCN(CC(F)(F)F)C4)CC3)n(C)c(=O)c2c1 (single isomer, unassigned) [Example 96] | > 15000 |  |  |  |  | 1 to 500 | 2000 to 15000 | 1 to 500
13 | Cc1cc(C(C)Nc2ccccc2C(=O)O)c2cc(N3C[C@@H]4[C@@H](C#N)[C@@H]4C3)n(C)c(=O)c2c1 (stereo partly drawn) [Example 15, 2-((1-(3-((1R,5S,6r)-6-cyano-3-azabicyclo[3.1.0]hexan-3-yl)-2,7-dimethyl-1-oxo-1,2-dihydroisoquinolin-5-yl)ethyl)amino)benzoic acid] |  |  |  |  | > 15000 | 500 to 2000 | > 15000 | 2000 to 15000
14 | Cc1cc(C(C)Nc2ccccc2C(=O)O)c2cc(N3Cc4cccnc4C3)n(C)c(=O)c2c1 (stereo not drawn) [Example 65] | > 15000 | 500 to 2000 | > 15000 | 1 to 500 |  |  |  | 
15 | Cc1cc(C(C)Nc2ccccc2C(=O)O)c2cc(N3CC4CCC(C4)C3)n(C)c(=O)c2c1 (single isomer, unassigned) [Example 10, 2-((1-(3-(3-azabicyclo[3.2.1]octan-3-yl)-2,7-dimethyl-1-oxo-1,2-dihydroisoquinolin-5-yl)ethyl)amino)benzoic acid] |  |  | 2000 to 15000 |  | > 15000 | 2000 to 15000 |  | > 15000

More lines, now with the values ahead:

Row | IC50 ([1]; Homo sapiens, SK-BR-3, 6 h) [nM] | EC50 ([2]; Homo sapiens, T47D, 72 h) [nM] | EC50 ([3]; Homo sapiens, SK-BR-3, 72 h) [nM] | IC50 ([4]; Homo sapiens, T47D, 6 h) [nM] | IC50 ([1]; 6 hours) [nM] | EC50 ([2]; 72 hours) [nM] | EC50 ([3]; 72 hours) [nM] | IC50 [4] [nM] | SMILES
16 | > 15000 | 500 to 2000 | > 15000 | 1 to 500 |  |  |  |  | C[C@@H](Nc1cccc(F)c1C(=O)O)c1cc(F)cc2c(=O)n(C)c(C3C[C@@H]3C(F)(F)F)cc12 (single isomer, unassigned) [Example 427]
17 | > 15000 | 1 to 500 | > 15000 | 1 to 500 |  |  |  |  | Cc1cnc(N2CCN(c3cc4c([C@@H](C)Nc5cccc(F)c5C(=O)O)cc(F)cc4c(=O)n3C)CC2)s1 [Example 417]
18 | > 15000 |  | > 15000 |  |  | 500 to 2000 |  | 500 to 2000 | C[C@@H](Nc1ccccc1C(=O)O)c1cc(F)cc2c(=O)n(C)c(C3CC3(F)F)cc12 (single isomer, unassigned) [Example 481]
19 |  |  |  |  | > 15000 | 2000 to 15000 | > 15000 | > 15000 | Cc1cc(C(C)Nc2ccccc2C(=O)O)c2c(F)c(C3=CCN(CC(F)(F)F)CC3)n(C)c(=O)c2c1 (single isomer, unassigned) [Example 360]
20 |  | 1 to 500 |  | 1 to 500 | 2000 to 15000 |  | 2000 to 15000 |  | COC[C@@H]1CC1c1cc2c([C@@H](C)Nc3ccccc3C(=O)O)cc(C)cc2c(=O)n1C (single isomer, unassigned) [Example 308]
21 | > 15000 | 1 to 500 | > 15000 | 1 to 500 |  |  |  |  | Cc1cc([C@@H](C)Nc2cccc(F)c2C(=O)O)c2cc(-c3cnc(C(C)C)nc3)n(C)c(=O)c2c1 [Example 319]
22 | > 15000 | 1 to 500 | > 15000 | 1 to 500 |  |  |  |  | C[C@@H](Nc1ccccc1C(=O)O)c1cc(F)cc2c(=O)n(C)c(-c3cnc(OCC(F)(F)F)s3)cc12 [Example 568]
23 |  |  |  |  | > 15000 | 1 to 500 | > 15000 | 1 to 500 | Cc1cc([C@@H](C)Nc2ccccc2C(=O)O)c2cc([C@H]3C[C@@H]3C(C)(C)O)n(C)c(=O)c2c1 (single isomer, unassigned) [Example 374]
24 | > 15000 | 1 to 500 | > 15000 | 1 to 500 |  |  |  |  | Cc1cnc(-c2cc3c([C@@H](C)Nc4ccccc4C(=O)O)cc(F)cc3c(=O)n2C)s1 [Example 504]
25 | > 15000 | 1 to 500 | > 15000 | 1 to 500 |  |  |  |  | Cc1cc([C@@H](C)Nc2ccccc2C(=O)O)c2cc(-c3cnc(C4CC4)s3)n(C)c(=O)c2c1 [Example 239]
26 | > 15000 | 1 to 500 | > 15000 | 1 to 500 |  |  |  |  | CCOc1ncc(-c2c(F)c3c([C@@H](C)Nc4ccccc4C(=O)O)cc(C)cc3c(=O)n2C)s1 [Example 536]
27 | > 15000 | 1 to 500 | > 15000 | 1 to 500 |  |  |  |  | Cc1cc([C@@H](C)Nc2ccccc2C(=O)O)c2cc(-c3ncc(C(F)(F)F)cn3)n(C)c(=O)c2c1 [Example 383]
28 |  |  |  |  | > 15000 | 1 to 500 | 2000 to 15000 | 1 to 500 | C[C@@H](Nc1ccccc1C(=O)O)c1cc(F)cc2c(=O)n(C)c(-c3cnc(-c4ccc(F)cc4)nc3)cc12 [Example 324]
29 |  |  |  |  | > 15000 | 1 to 500 | > 15000 | 1 to 500 | C[C@@H](Nc1cccc(F)c1C(=O)O)c1cc(F)cc2c(=O)n(C)c(C3C[C@@H]3C3CC3)cc12 (single isomer, unassigned) [Example 426]
30 |  |  |  |  | > 15000 | 2000 to 15000 | > 15000 | 2000 to 15000 | Cc1cc([C@@H](C)Nc2ccccc2C(=O)O)c2cc(N3CCN(c4cn(C)nn4)CC3)n(C)c(=O)c2c1 [Example 254]
31 |  |  |  |  | 500 to 2000 | 1 to 500 | 500 to 2000 | 1 to 500 | Cc1ccc(N2CCN(c3cc4c(C(C)Nc5ccccc5C(=O)O)cc(F)cc4c(=O)n3C)CC2)c(C)n1 (stereo not drawn) [Example 460]
32 | > 15000 | 1 to 500 | > 15000 | 1 to 500 |  |  |  |  | Cc1cc([C@@H](C)Nc2ccccc2C(=O)O)c2cc(C3CC3(F)F)n(C)c(=O)c2c1 (single isomer, unassigned) [Example 384]
33 | > 15000 | 1 to 500 | > 15000 | 1 to 500 |  |  |  |  | Cc1cc([C@@H](C)Nc2ccccc2C(=O)O)c2cc(-c3cnc(CC(F)(F)F)cn3)n(C)c(=O)c2c1 [Example 422]
34 | > 15000 | 1 to 500 | > 15000 | 1 to 500 |  |  |  |  | Cc1cc([C@@H](C)Nc2ccccc2C(=O)O)c2cc(-c3ccc(C(C)(C)F)nc3)n(C)c(=O)c2c1 [Example 225]
35 |  |  |  |  | > 15000 | 1 to 500 | > 15000 | 1 to 500 | Cc1cc([C@@H](C)Nc2ccccc2C(=O)O)c2cc(C3C[C@H]3C3CC3)n(C)c(=O)c2c1 (single isomer, unassigned) [Example 315]
36 | 2000 to 15000 | 1 to 500 | 2000 to 15000 | 1 to 500 |  |  |  |  | COc1ccc(N2CCN(c3cc4c([C@@H](C)Nc5ccccc5C(=O)O)cc(C)cc4c(=O)n3C)CC2)cn1 [Example 218]
